Measurements as given in paper PMC7663979, “Design of Novel 4-Aminobenzofuroxans and Evaluation of Their Antimicrobial and Anticancer Activity” (International Journal of Molecular Sciences, 2020).
Values joined by “and” are separate entries in the source; they are usually repeats but may differ in a detail not shown here. Equal entries are not always repeated. Where two headings read alike, the source gives them in different places.

Key:
[1] = test system: Microdochium nivale isolate 1; test: Fungistatic activity, agar growth medium poison technique, isolate 1; type: cell-based; details: Microdochium nivale, 1 mM in PSA, 20 °C
Description: (§1) Fungistatic activity of the tested compounds was assessed in vitro using agar growth medium poison technique. The target compounds as well as widely used fungicides benzimidazole and carbendazim were dissolved to 10 mM concentration in 20% Tween 20. The obtained solutions were added 1:9 v/v (giving 1 mM-concentrations of the target compounds) to potato-sucrose agar (PSA) at 60 °C, mixed thoroughly and transferred to Petri dishes. For the control variants, PSA was supplemented with 20% Tween 20 (9:1). Fungistatic effect was tested against two isolates of Microdochium nivale causing snow mold disease of winter cereals (rye) from the culture collection of FRC Kazan Scientific Center of RAS. […] The center of each solidified medium was inoculated upside-down with 5-mm diameter mycelial plug cut from the periphery of 10-day-old cultures. The tested dishes were incubated at 20 °C. The percentage growth inhibition was calculated using Abbott’s formula (1):%Inhibition = [(A − B) ÷ A] × 100(1) where ‘A’ is mycelia growth in the control conditions and ‘B’ is mycelia growth in the treatment conditions. The assay was performed at least in triplicate. Linear growth of each colony was determined during 6 days.

[2] = test system: Microdochium nivale isolate 21; test: Fungistatic activity, agar growth medium poison technique, isolate 21; type: cell-based; details: Microdochium nivale, 1 mM in PSA, 20 °C
Description: as §1

M-HeLa = test: Cytotoxicity assay (Cytell Cell Viability BioApp), M-HeLa; type: cell-based, human; details: for IC50: Homo sapiens, M-HeLa, mean ± SD, three experiments; for SI M-HeLa: selectivity index = IC50 normal cells (Chang liver) / IC50 cancer cells, n.s. = no selectivity
MCF7 = test: Cytotoxicity assay (Cytell Cell Viability BioApp), MCF7; type: cell-based, human; details: for IC50: Homo sapiens, MCF7, mean ± SD, three experiments; for SI MCF7: selectivity index = IC50 normal cells (Chang liver) / IC50 cancer cells, n.s. = no selectivity
PANC-1 = test: Cytotoxicity assay (Cytell Cell Viability BioApp), PANC-1; type: cell-based, human; details: for IC50: Homo sapiens, PANC-1, mean ± SD, three experiments; for SI PANC-1: selectivity index = IC50 normal cells (Chang liver) / IC50 cancer cells, n.s. = no selectivity
T98G = test: cells; type: cell-based, human; details: for IC50: Homo sapiens, T98G, read-out: IC50 T98G; for SI T98G: selectivity index = IC50 normal cells (Chang liver) / IC50 cancer cells, n.s. = no selectivity
Chang Liver = test: Cytotoxicity assay (Cytell Cell Viability BioApp), normal Chang liver cells; type: cell-based; details: Homo sapiens, mean ± SD, three experiments, read-out: IC50 Chang Liver (normal cell line)
M-HeLa cells [3] = test: Cell apoptosis analysis by flow cytometry (annexin V-Alexa Fluor 647 / propidium iodide); type: cell-based, human; details: 24 h
Description: (§2) Cell Culture. M-HeLa cells at 10^6 cells/ well in a final volume of 2 mL were seeded into 6-well plates. After 24 h of incubation, various concentrations of compounds 3c and 3f were added to wells.
Cell Apoptosis Analysis. The cells were harvested at 2000 rpm for 5 min and, then, washed twice with ice-cold PBS, followed by resuspension in binding buffer 100 μL. Next, the samples were incubated with 0.35 μL of annexin V-Alexa Fluor 647 and 0.1 μL of propidium iodide for 40 min at room temperature in the dark. Finally, the cells were analyzed by flow cytometry (Guava easyCyte, MERCK, Kenilworth, NJ, USA). The experiments were repeated three times.

M-HeLa cells [4] = test: Cell cycle analysis, propidium iodide, flow cytometry; type: cell-based, human; details: 24 h, control cells 34.28%
Description: as §2
The DNA content and cell-cycle distribution after […] were estimated by flow cytometry. Cell seeding, drug treatment and ethanol fixation were similar to cell proliferation assay. After washing with PBS, […] were suspended in 150 μL of PBS, then 0.5 mL phosphate-citrate buffer (0.05 M, pH = 4.0) was added and the suspension was incubated at room temperature for 5 min to facilitate the extraction of low molecular weight DNA. Following centrifugation the cells were resuspended in 150 μL DNA staining solution (20 μg/mL propidium iodide, 200 μg/mL […], and 0.1% Triton X-100) and incubated in the CO2 incubator (37 °C for 30 min). Cell cycle distribution was determined by fluorescence-activated cell sorting analysis of propidium iodide-stained ethanol-fixed cells using a Guava EasyCyte (Guava easyCyte, MERCK, Kenilworth, NJ, USA).

M-HeLa cells [5] = test: Mitochondrial membrane potential, JC-10, flow cytometry; type: cell-based, human; details: ≥ IC 50 concentrations
Description: as §2
The cells were harvested at 2000 rpm for 5 min and, then, washed twice with ice-cold PBS, followed by resuspension in JC-10 (10 µg/mL) and incubation at 37 °C for 10 min. After the cells were rinsed three times and suspended in PBS, the JC-10 fluorescence was observed by flow cytometry.

[6] = test system: Vibrio aquamarinus DSM 26054; parameters: method as in PMID 31450696; details: control = 100%, data first published in ref 40, cited from earlier work

O=[N+]([O-])c1c(Cl)cc2c(no[n+]2[O-])c1Nc1ccc(Br)cc1 [Compound 3c, 4-((4-bromophenyl)amino)-6-chloro-5-nitrobenzofuroxan]
inhibition at 1000 µM ([1]; fifth day of incubation): > 40% | inhibition at 1000 µM ([1]; sixth day of incubation): > 25% | inhibition at 1000 µM ([2]; fifth day of incubation): > 40% | inhibition at 1000 µM ([2]; sixth day of incubation): > 25% | IC50 (M-HeLa): 4.8 ± 0.4 µM | SI M-HeLa (M-HeLa): 12.8 | IC50 (MCF7): 3.7 ± 0.2 µM | SI MCF7 (MCF7): 16.6 | IC50 (PANC-1): 59.2 ± 4.6 µM | SI PANC-1 (PANC-1): 1.0 | IC50 (T98G): 20.4 ± 1.7 µM | SI T98G (T98G): 3 | IC50 (Chang Liver): 61.3 ± 5.1 µM | D—dead cells (M-HeLa cells [3]; 5 μM): 3.92% | Ea—early apoptotic cells (M-HeLa cells [3]; 5 μM): 6.67% | La—late apoptotic cells (M-HeLa cells [3]; 5 μM): 8.63% | L—living cells (M-HeLa cells [3]; 5 μM): 80.78% | D—dead cells (M-HeLa cells [3]; 10 μM): 6.16% | Ea—early apoptotic cells (M-HeLa cells [3]; 10 μM): 17.33% | La—late apoptotic cells (M-HeLa cells [3]; 10 μM): 15.69% | L—living cells (M-HeLa cells [3]; 10 μM): 60.82% | cells in G0/G1 phase (G1) (M-HeLa cells [4]; 5 μM): 62.9% and 62.91% | cells in G0/G1 phase (G1) (M-HeLa cells [4]; 10 μM): 70.1% and 70.06%

O=[N+]([O-])c1c(Cl)cc2c(no[n+]2[O-])c1NCCCN1CCOCC1 [Compound 5c, 6-chloro-4-((3-morpholinopropyl)amino)-5-nitrobenzofuroxan]
IC50 (M-HeLa): 49.3 ± 3.9 µM | SI M-HeLa (M-HeLa): >2 | IC50 (MCF7): > 100 µM | SI MCF7 (MCF7): n.s. | IC50 (PANC-1): 38 ± 2.9 µM | SI PANC-1 (PANC-1): >2.6 | IC50 (T98G): > 100 µM | SI T98G (T98G): n.s. | IC50 (Chang Liver): > 100 µM | intensity of red fluorescence (JC-10) compared to the control (M-HeLa cells [5]): did not change significantly

O=[N+]([O-])c1c(Cl)cc2c(no[n+]2[O-])c1Nc1cccc(O)c1 [Compound 3f, 6-chloro-4-((3-hydroxyphenyl)amino)-5-nitrobenzofuroxan]
IC50 (M-HeLa): 16 ± 1.3 µM | SI M-HeLa (M-HeLa): 4.0 | IC50 (MCF7): 8.1 ± 0.7 µM | SI MCF7 (MCF7): 8.0 | IC50 (PANC-1): > 100 µM | SI PANC-1 (PANC-1): n.s. | IC50 (T98G): 59.8 ± 4.8 µM | SI T98G (T98G): 1.1 | IC50 (Chang Liver): 64.4 ± 5.7 µM | D—dead cells (M-HeLa cells [3]; 10 μM): 5.03% | Ea—early apoptotic cells (M-HeLa cells [3]; 10 μM): 14.46% | La—late apoptotic cells (M-HeLa cells [3]; 10 μM): 12.79% | L—living cells (M-HeLa cells [3]; 10 μM): 67.72% | D—dead cells (M-HeLa cells [3]; 15 μM): 8.16% | Ea—early apoptotic cells (M-HeLa cells [3]; 15 μM): 17.59% | La—late apoptotic cells (M-HeLa cells [3]; 15 μM): 16.83% | L—living cells (M-HeLa cells [3]; 15 μM): 57.42% | cells in G0/G1 phase (G1) (M-HeLa cells [4]; 15 μM): 66.8% | Biofilm Formation, % ([6]; compound concentration 1 × 10^−4 M): 98.97% | Biofilm Formation, % ([6]; compound concentration 1 × 10^−5 M): 96.57% | Biofilm Formation, % ([6]; compound concentration 1 × 10^−6 M): 43.56% and 43.56 * % | Biofilm Formation, % ([6]; compound concentration 1 × 10^−7 M): 11.34% and 11.34 * % | Biofilm Formation, % ([6]; compound concentration 1 × 10^−8 M): 9.31% and 9.31 * % | Biofilm Formation, % ([6]; compound concentration 1 × 10^−9 M): 66.58%

O=[N+]([O-])c1c(Cl)cc2c(no[n+]2[O-])c1N1CCCC1 [Compound 5g, 6-chloro-5-nitro-4-(pyrrolidin-1-yl)benzofuroxan]
IC50 (M-HeLa): > 100 µM | SI M-HeLa (M-HeLa): n.s. | IC50 (MCF7): > 100 µM | SI MCF7 (MCF7): n.s. | IC50 (PANC-1): > 100 µM | SI PANC-1 (PANC-1): n.s. | IC50 (T98G): > 100 µM | SI T98G (T98G): n.s. | IC50 (Chang Liver): > 100 µM | intensity of red fluorescence (JC-10) compared to the control (M-HeLa cells [5]): did not change significantly

CC(C)c1ccc(Nc2c([N+](=O)[O-])cc([N+](=O)[O-])c3no[n+]([O-])c23)cc1 [Compound 6, 7-(4-isopropylphenylamino)-4,6-dinitrobenzofuroxan]
melting point: 110 to 111 °C
